# Columns and labels:
# Aphis craccivora = test: Anti-insecticidal activity against Aphis craccivora; format: functional
# Staphylococcus aureus [1] = test: Antibacterial activity against Staphylococcus aureus assessed as zone of inhibition at 10 ug/ml by agar well diffusion method; format: functional; settings: read-out: IZ
# Staphylococcus aureus [2] = test: Antibacterial activity against Staphylococcus aureus assessed as zone of inhibition at 25 ug/ml by agar well diffusion method; format: functional; settings: read-out: IZ
# Staphylococcus aureus [3] = test: Antibacterial activity against Staphylococcus aureus assessed as zone of inhibition at 35 ug/ml by agar well diffusion method; format: functional; settings: read-out: IZ
# Escherichia coli [4] = test: Antibacterial activity against Escherichia coli assessed as zone of inhibition at 10 ug/ml by agar well diffusion method; format: functional; settings: read-out: IZ
# Escherichia coli [5] = test: Antibacterial activity against Escherichia coli assessed as zone of inhibition at 25 ug/ml by agar well diffusion method; format: functional; settings: read-out: IZ
# Escherichia coli [6] = test: Antibacterial activity against Escherichia coli assessed as zone of inhibition at 35 ug/ml by agar well diffusion method; format: functional; settings: read-out: IZ
# Hepatitis C virus = test: Antiviral activity against Hepatitis C virus genotype 2a infected in human Huh-7 cells assessed as reduction in viral infection; format: functional, organism-based, Hepacivirus hominis
# Escherichia coli [7] = test: Antibacterial activity against Escherichia coli assessed as zone of inhibition at 150 ug/ml by agar disc diffusion method; format: functional; settings: read-out: IZ
# Escherichia coli [8] = test: Antibacterial activity against Escherichia coli assessed as zone of inhibition at 200 ug/ml by agar disc diffusion method; format: functional; settings: read-out: IZ
# Escherichia coli [9] = test: Antibacterial activity against Escherichia coli assessed as zone of inhibition at 250 ug/ml by agar disc diffusion method; format: functional; settings: read-out: IZ
# Bacillus subtilis [10] = test: Antibacterial activity against Bacillus subtilis assessed as zone of inhibition at 150 ug/ml by agar disc diffusion method; format: functional; settings: read-out: IZ
# Bacillus subtilis [11] = test: Antibacterial activity against Bacillus subtilis assessed as zone of inhibition at 200 ug/ml by agar disc diffusion method; format: functional; settings: read-out: IZ
# Bacillus subtilis [12] = test: Antibacterial activity against Bacillus subtilis assessed as zone of inhibition at 250 ug/ml by agar disc diffusion method; format: functional; settings: read-out: IZ
# Pseudomonas aeruginosa [13] = test: Antibacterial activity against Pseudomonas aeruginosa assessed as zone of inhibition at 150 ug/ml by agar disc diffusion method; format: functional; settings: read-out: IZ
# Pseudomonas aeruginosa [14] = test: Antibacterial activity against Pseudomonas aeruginosa assessed as zone of inhibition at 200 ug/ml by agar disc diffusion method; format: functional; settings: read-out: IZ
# Pseudomonas aeruginosa [15] = test: Antibacterial activity against Pseudomonas aeruginosa assessed as zone of inhibition at 250 ug/ml by agar disc diffusion method; format: functional; settings: read-out: IZ
# Staphylococcus aureus [16] = test: Antibacterial activity against Staphylococcus aureus assessed as zone of inhibition at 200 ug/ml by agar disc diffusion method; format: functional; settings: read-out: IZ
# Staphylococcus aureus [17] = test: Antibacterial activity against Staphylococcus aureus assessed as zone of inhibition at 250 ug/ml by agar disc diffusion method; format: functional; settings: read-out: IZ
# Staphylococcus aureus [18] = test: Antibacterial activity against Staphylococcus aureus assessed as zone of inhibition at 150 ug/ml by agar disc diffusion method; format: functional; settings: read-out: IZ
# Staphylococcus aureus [19] = test: Antibacterial activity against Staphylococcus aureus assessed as zone of inhibition at 10 ug/ml by agar disc diffusion method; format: functional; settings: read-out: IZ
# Staphylococcus aureus [20] = test: Antibacterial activity against Staphylococcus aureus assessed as zone of inhibition at 25 ug/ml by agar disc diffusion method; format: functional; settings: read-out: IZ
# Staphylococcus aureus [21] = test: Antibacterial activity against Staphylococcus aureus assessed as zone of inhibition at 35 ug/ml by agar disc diffusion method; format: functional; settings: read-out: IZ
# Escherichia coli [22] = test: Antibacterial activity against Escherichia coli assessed as zone of inhibition at 10 ug/ml by agar disc diffusion method; format: functional; settings: read-out: IZ
# Escherichia coli [23] = test: Antibacterial activity against Escherichia coli assessed as zone of inhibition at 25 ug/ml by agar disc diffusion method; format: functional; settings: read-out: IZ
# Escherichia coli [24] = test: Antibacterial activity against Escherichia coli assessed as zone of inhibition at 35 ug/ml by agar disc diffusion method; format: functional; settings: read-out: IZ
# Candida metapsilosis [25] = test: Antifungal activity against Candida metapsilosis assessed as zone of inhibition at 10 ug/ml by disc diffusion method; format: functional; settings: Lodderomyces metapsilosis, read-out: IZ
# Candida metapsilosis [26] = test: Antifungal activity against Candida metapsilosis assessed as zone of inhibition at 25 ug/ml by disc diffusion method; format: functional; settings: Lodderomyces metapsilosis, read-out: IZ
# Candida metapsilosis [27] = test: Antifungal activity against Candida metapsilosis assessed as zone of inhibition at 35 ug/ml by disc diffusion method; format: functional; settings: Lodderomyces metapsilosis, read-out: IZ
# Aspergillus niger [28] = test: Antifungal activity against Aspergillus niger assessed as zone of inhibition at 10 ug/ml by disc diffusion method; format: functional; settings: read-out: IZ
# Aspergillus niger [29] = test: Antifungal activity against Aspergillus niger assessed as zone of inhibition at 25 ug/ml by disc diffusion method; format: functional; settings: read-out: IZ
# Aspergillus niger [30] = test: Antifungal activity against Aspergillus niger assessed as zone of inhibition at 35 ug/ml by disc diffusion method; format: functional; settings: read-out: IZ
# [31] = molecular target: Voltage-gated inwardly rectifying potassium channel KCNH2 (Homo sapiens, UniProt Q12809); test: Inhibition of hERG; format: toxicity
# Chain of Voltage-gated inwardly rectifying potassium channel KCNH2 (Q12809 whole entry): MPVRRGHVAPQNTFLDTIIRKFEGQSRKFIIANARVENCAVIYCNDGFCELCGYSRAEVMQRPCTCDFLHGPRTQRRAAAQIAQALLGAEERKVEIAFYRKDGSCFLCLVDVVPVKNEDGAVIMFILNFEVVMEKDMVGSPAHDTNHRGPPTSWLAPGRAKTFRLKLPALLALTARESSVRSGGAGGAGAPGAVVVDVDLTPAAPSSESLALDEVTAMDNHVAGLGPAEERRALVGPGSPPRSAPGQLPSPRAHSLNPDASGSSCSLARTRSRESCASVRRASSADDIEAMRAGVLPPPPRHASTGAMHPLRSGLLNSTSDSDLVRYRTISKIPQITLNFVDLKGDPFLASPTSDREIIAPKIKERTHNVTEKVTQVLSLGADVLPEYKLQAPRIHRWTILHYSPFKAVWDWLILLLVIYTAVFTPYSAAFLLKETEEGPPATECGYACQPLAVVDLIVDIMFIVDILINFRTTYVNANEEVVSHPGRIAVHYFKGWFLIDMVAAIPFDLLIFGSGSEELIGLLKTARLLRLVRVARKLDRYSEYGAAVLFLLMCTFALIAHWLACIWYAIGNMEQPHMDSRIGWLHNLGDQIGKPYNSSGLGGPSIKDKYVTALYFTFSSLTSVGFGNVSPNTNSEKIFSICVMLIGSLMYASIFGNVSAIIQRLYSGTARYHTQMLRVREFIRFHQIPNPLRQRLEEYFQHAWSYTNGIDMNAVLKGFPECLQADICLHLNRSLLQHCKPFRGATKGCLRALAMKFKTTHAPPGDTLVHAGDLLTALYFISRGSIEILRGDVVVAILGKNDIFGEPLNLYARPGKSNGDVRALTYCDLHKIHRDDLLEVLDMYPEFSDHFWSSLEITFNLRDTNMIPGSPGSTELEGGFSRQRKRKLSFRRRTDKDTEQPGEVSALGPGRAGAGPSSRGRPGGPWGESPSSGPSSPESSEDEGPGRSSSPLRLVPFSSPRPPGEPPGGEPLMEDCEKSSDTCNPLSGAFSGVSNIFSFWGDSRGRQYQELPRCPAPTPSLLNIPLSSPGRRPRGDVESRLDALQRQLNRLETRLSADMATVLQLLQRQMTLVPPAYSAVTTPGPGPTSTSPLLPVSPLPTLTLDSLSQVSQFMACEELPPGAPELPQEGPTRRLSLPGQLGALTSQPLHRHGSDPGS
# hERG (KCNH2) = hERG (KCNH2) (Homo sapiens, UniProt Q12809); test: Inhibition of hERG potassium […] at 6.25 uM relative to control; format: toxicity
# Chain of hERG (KCNH2) (Q12809 whole entry, the tested form may be a part): as the sequence (Q12809 whole entry) above
# Bacillus subtilis [32] = test: Antibacterial activity against Bacillus subtilis assessed as diameter of zone of inhibition at 400 ug/ml by agar disk diffusion method; format: functional; settings: read-out: IZ
# Bacillus subtilis [33] = test: Antibacterial activity against Bacillus subtilis assessed as diameter of zone of inhibition at 600 ug/ml by agar disk diffusion method; format: functional; settings: read-out: IZ
# Escherichia coli [34] = test: Antibacterial activity against Escherichia coli assessed as zone of inhibition at 400 ug/ml by agar disk diffusion method; format: functional; settings: read-out: IZ
# Escherichia coli [35] = test: Antibacterial activity against Escherichia coli assessed as zone of inhibition at 600 ug/ml by agar disk diffusion method; format: functional; settings: read-out: IZ
smiles,measurement,setting,value
N#Cc1c(N)nc2c(c1N)C(c1ccc(C(F)(F)F)cc1)C([N+](=O)[O-])=C1N(Cc3ccc(Cl)nc3)CCN12 (centres undefined),LC50,Aphis craccivora,0.031 µM
O=[N+]([O-])c1cccc(-c2cnc3c(-c4ccc(F)cc4Cl)cc4cccnc4n23)c1,zone of inhibition at 10 µg/mL,Staphylococcus aureus [1],6 mm
same,zone of inhibition at 25 µg/mL,Staphylococcus aureus [2],16 mm
same,zone of inhibition at 35 µg/mL,Staphylococcus aureus [3],24 mm
same,zone of inhibition at 10 µg/mL,Escherichia coli [4],6 mm
same,zone of inhibition at 25 µg/mL,Escherichia coli [5],16 mm
same,zone of inhibition at 35 µg/mL,Escherichia coli [6],25 mm
FC(F)(F)c1cc(C(F)(F)F)c2ccc3ncc(-c4cncnc4)n3c2n1,EC50,Hepatitis C virus,> 20 µM
Cc1cccc(-c2cnc3ccc4c(C(F)(F)F)cc(C(F)(F)F)nc4n23)c1,EC50,Hepatitis C virus,2.6 µM
O=[N+]([O-])c1cccc(-c2cc3cccnc3n3c2nc2ccc(O)cc23)c1,zone of inhibition at 150 µg/mL,Escherichia coli [7],17 mm
same,zone of inhibition at 200 µg/mL,Escherichia coli [8],22 mm
same,zone of inhibition at 250 µg/mL,Escherichia coli [9],22 mm
same,zone of inhibition at 150 µg/mL,Bacillus subtilis [10],16 mm
same,zone of inhibition at 200 µg/mL,Bacillus subtilis [11],19 mm
same,zone of inhibition at 250 µg/mL,Bacillus subtilis [12],23 mm
same,zone of inhibition at 150 µg/mL,Pseudomonas aeruginosa [13],17 mm
same,zone of inhibition at 200 µg/mL,Pseudomonas aeruginosa [14],20 mm
same,zone of inhibition at 250 µg/mL,Pseudomonas aeruginosa [15],22 mm
same,zone of inhibition at 200 µg/mL,Staphylococcus aureus [16],20 mm
same,zone of inhibition at 250 µg/mL,Staphylococcus aureus [17],22 mm
same,zone of inhibition at 150 µg/mL,Staphylococcus aureus [18],18 mm
O=c1oc2ccccc2cc1-c1cnc2c(-c3cccc([N+](=O)[O-])c3)cc3cccnc3n12,zone of inhibition at 10 µg/mL,Staphylococcus aureus [19],8 mm
same,zone of inhibition at 25 µg/mL,Staphylococcus aureus [20],19 mm
same,zone of inhibition at 35 µg/mL,Staphylococcus aureus [21],31 mm
same,zone of inhibition at 10 µg/mL,Escherichia coli [22],8 mm
same,zone of inhibition at 25 µg/mL,Escherichia coli [23],2 mm
same,zone of inhibition at 35 µg/mL,Escherichia coli [24],32 mm
same,zone of inhibition at 10 µg/mL,Candida metapsilosis [25],7 mm
same,zone of inhibition at 25 µg/mL,Candida metapsilosis [26],17 mm
same,zone of inhibition at 35 µg/mL,Candida metapsilosis [27],28 mm
same,zone of inhibition at 10 µg/mL,Aspergillus niger [28],7 mm
same,zone of inhibition at 25 µg/mL,Aspergillus niger [29],20 mm
same,zone of inhibition at 35 µg/mL,Aspergillus niger [30],28 mm
Cc1cc(C)c2ccc3nc(-c4ccccc4)c(CN4CCCC4)n3c2n1,IC50,[31],92.2 µM
Fc1ccc(-c2cc3cccnc3n3c(-c4ccc(Cl)cc4)cnc23)c(Cl)c1,zone of inhibition at 10 µg/mL,Staphylococcus aureus [1],6 mm
same,zone of inhibition at 25 µg/mL,Staphylococcus aureus [2],16 mm
same,zone of inhibition at 35 µg/mL,Staphylococcus aureus [3],24 mm
same,zone of inhibition at 10 µg/mL,Escherichia coli [4],6 mm
same,zone of inhibition at 25 µg/mL,Escherichia coli [5],16 mm
same,zone of inhibition at 35 µg/mL,Escherichia coli [6],25 mm
Cc1cc(C)c2ccc3nc(-c4ccc(F)cc4)c(CN4CCCCC4)n3c2n1,inhibition at 6.25 µM,hERG (KCNH2),11%
Oc1ccc2nc3c(-c4ccccc4C(F)(F)F)cc4cccnc4n3c2c1,zone of inhibition at 150 µg/mL,Escherichia coli [7],17 mm
same,zone of inhibition at 200 µg/mL,Escherichia coli [8],22 mm
same,zone of inhibition at 250 µg/mL,Escherichia coli [9],22 mm
same,zone of inhibition at 150 µg/mL,Bacillus subtilis [10],16 mm
same,zone of inhibition at 200 µg/mL,Bacillus subtilis [11],19 mm
same,zone of inhibition at 250 µg/mL,Bacillus subtilis [12],23 mm
same,zone of inhibition at 150 µg/mL,Pseudomonas aeruginosa [13],17 mm
same,zone of inhibition at 200 µg/mL,Pseudomonas aeruginosa [14],20 mm
same,zone of inhibition at 250 µg/mL,Pseudomonas aeruginosa [15],22 mm
same,zone of inhibition at 200 µg/mL,Staphylococcus aureus [16],20 mm
same,zone of inhibition at 250 µg/mL,Staphylococcus aureus [17],22 mm
same,zone of inhibition at 150 µg/mL,Staphylococcus aureus [18],18 mm
COc1ccc(-c2cc3cccnc3n3c2nc2ccccc23)cc1,zone of inhibition at 400 µg/mL,Bacillus subtilis [32],7.5 mm
same,zone of inhibition at 600 µg/mL,Bacillus subtilis [33],8.5 mm
same,zone of inhibition at 400 µg/mL,Escherichia coli [34],11.5 mm
same,zone of inhibition at 600 µg/mL,Escherichia coli [35],12.5 mm
Cc1cc(C)c2ccc3nc(-c4ccc(F)cc4)c(CN4CCOCC4)n3c2n1,IC50,[31],> 50 µM
N#Cc1c(N)nc2c(c1N)C(c1ccc(F)cc1)C([N+](=O)[O-])=C1N(Cc3ccc(Cl)nc3)CCN12 (centres undefined),LC50,Aphis craccivora,0.011 µM

# Source: ChEMBL document CHEMBL6109108, “A comprehensive review of fused imidazonaphthyridine derivatives: Synthetic approaches and biological applications” (Bioorg Med Chem, 2025)
